Assay results: patent EP2803363A1, “The antigen CYBA-72Y/B15 and uses thereof” (Universitätsmedizin der Johannes Gutenberg-Universität Mainz, priority 2013, dated 2014)
Ends that are not written are not given here.

Experiments:
miniMLLC 2E8 [1] = assay: 20h-IFN-gamma ELISpot assay: recognition of synthetic CYBA peptides loaded on HLA-B*15:01-transfected 293T cells; type: cell-based; conditions: for recognition by T cells using an IFN-gamma-ELISpot assay: 293T cells transfected with HLA-B*15:01, loaded with peptide at different concentrations, 2E8 effector cells, Figure 3A; for peptide recognition by T lymphocytes against CYBA-72Y/B15: summary statement for all T lymphocytes (miniMLLCs), assay not given
Protocol: The present invention will now be further described in the following examples with reference to the accompanying figures and sequences, nevertheless, without being limited thereto. For the purposes of the present invention, all references as cited herein are incorporated by reference in their entireties. The Figures and Sequences show: • Figure 1: HLA restriction of miniMLLC 2E8. A) MZ529-EBV-B-cells (5x10^4 cells/well) were co-incubated in the presence of HLA-specific antibodies at concentrations mediating complete blocking of control-T lymphocytes with corresponding HLA restriction, with the miniMLLC 2E8 (1x10^4 cells/TU) in duplicate reactions in a 20h-IFN-gamma ELISpot assay. B) COS-7-cells (2x10^4 cells/well) were transfected with the HLA alleles of patient MZ529-AML and Buffy Coat donor 730 and tested in duplicate reactions for recognition by 2E8 (2x10^4 cells/well) in a 20h-IFN-gamma ELISpot assay. • Figure 2: Fragment analysis of the cDNA clone #428.67.4 for the identification of the peptide-coding region. 3'-fragments with a length difference of one codon (i.e. one amino acid) were generated from the cDNA clone #428.67.4 encoding the full-length CYBA-72Y, and were tested after co-transfection with HLA-B*15:01 into 293T cells (2x10^4 cells/well) in a 20h-IFN-gamma ELISpot assay for recognition by 2E8 (1.5x10^4 cells/well). MZ529-EBV-B cells (5x10^4 cells/well) served as positive control target. • Figure 3: Peptide recognition by the miniMLLC 2E8. (A) For a 20h-IFN-gamma ELISpot assay, 293T cells (2x10^4 cells/well) were transfected with HLA-B*15:01, were loaded with the indicated synthetic CYBA peptides at different concentrations, and were tested in duplicate reactions for recognition by 2E8 (2x10^4 cells/well). (B) For a […]-^51Cr-release assay, HLA-B*15:01-expressing L721.221-cells (2x10^4 cells/well) were loaded with the indicated synthetic CYBA peptides at different concentrations, and co-incubated in duplicate experiments with 2E8 (2x10^4 cells/well). • Figure 4: Recognition of non-malignant hematopoietic cells from HLA-B*15:01-positive BC donors by the CYBA-72Y/B15-specific miniMLLC 2E8. (A) From PBMCs of HLA-B*15:01-positive BC donors, who -with the exception of BC848 - carried at least one CYBA-242T allele (coding for CYBA-72Y), monocytes were purified using plastic adherence and differentiated to mature dendritic cells (mDCs) using cytokines. In duplicates 5x10^4 (BC087, BC848, BC967) or 3x10^4 (BC241, BC048) cells per well were tested for recognition by 2E8 (1.5x10^4 cells/well) in 20h-IFN-gamma ELISpot assays. […]

miniMLLC 2E8 [2] = assay: 48h-51Cr-release assay: synthetic CYBA peptides loaded on HLA-B*15:01-expressing L721.221-cells; type: cell-based; conditions: HLA-B*15:01-expressing L721.221-cells loaded with peptide at different concentrations; 2E8 effector cells; Figure 3B
Protocol: The present invention will now be further described in the following examples with reference to the accompanying figures and sequences, nevertheless, without being limited thereto. For the purposes of the present invention, all references as cited herein are incorporated by reference in their entireties. The Figures and Sequences show: • Figure 1: HLA restriction of miniMLLC 2E8. A) MZ529-EBV-B-cells (5x10^4 cells/well) were co-incubated in the presence of HLA-specific antibodies at concentrations mediating complete blocking of control-T lymphocytes with corresponding HLA restriction, with the miniMLLC 2E8 (1x10^4 cells/TU) in duplicate reactions in a 20h-IFN-gamma ELISpot assay. B) COS-7-cells (2x10^4 cells/well) were transfected with the HLA alleles of patient MZ529-AML and Buffy Coat donor 730 and tested in duplicate reactions for recognition by 2E8 (2x10^4 cells/well) in a 20h-IFN-gamma ELISpot assay. • Figure 2: Fragment analysis of the cDNA clone #428.67.4 for the identification of the peptide-coding region. 3'-fragments with a length difference of one codon (i.e. one amino acid) were generated from the cDNA clone #428.67.4 encoding the full-length CYBA-72Y, and were tested after co-transfection with HLA-B*15:01 into 293T cells (2x10^4 cells/well) in a 20h-IFN-gamma ELISpot assay for recognition by 2E8 (1.5x10^4 cells/well). […]

[3] = target: T1, CYBA-72Y peptide on HLA-B*15:01 (human); assay: cytokine release
T1 peptide: WGQKYMTAVV

[4] = target: T2, CYBA-72Y (cytochrome b-245 alpha-polypeptide, p22phox; SNP rs4673, tyrosine at position 72) peptide on … (human); assay: cytokine release
T2 peptide: GQKYMTAVV

GQKYMTAVV [GQKYMTAVV]
recognition by T cells using an IFN-gamma-ELISpot assay (miniMLLC 2E8 [1]): recognized at lower concentrations | peptide recognition by T lymphocytes against CYBA-72Y/B15 (miniMLLC 2E8 [1]): recognized by all T lymphocytes at the lowest concentration | recognition by T cells by means of a 51Cr-(chromium) release test (miniMLLC 2E8 [2]): recognized at lower concentrations

WGQKYMTAVV [WGQKYMTAVV]
recognition by T cells using an IFN-gamma-ELISpot assay (miniMLLC 2E8 [1]): recognized | recognition by T cells by means of a 51Cr-(chromium) release test (miniMLLC 2E8 [2]): recognized

GQKHMTAVV [homologous peptide from CYBA-72H, reference compound]
peptide recognition by T lymphocytes against CYBA-72Y/B15 (miniMLLC 2E8 [1]): did not lead to any reactivity

B1: T-cell receptor cloned from miniMLLC 2D10 (TCR)
alpha TRAV10*01 TRAJ42*01 CDR3: CVVSRIYGGSQGNLIF
beta TRBV20-1*02 TRBJ2-3*01 CDR3: CSARGFSGVTDTQYF
binding result [3]: recognises | binding result [4]: recognises
